Measurements from patent US20080220100A1, “Fermented panax notoginseng solution with anti-cancer effects and manufacture method thereof” (MICROBIO COMPANY LTD., TAIWAN, priority 2007, published 2008).

Experiments:
[1] = Anti-oxidation capacity relative to vitamin E; conditions: vitamin E defined to 100; medium with increasing share of black bean powder
Source text: The same procedure carried out in Example 2 was repeated except that the content of the Panax notoginseng medium was changed. The content of the Panax notoginseng medium included 4 types: ¼ Panax notoginseng powder and ¾ black powder, ½ Panax notoginseng powder and 1/2 black powder, ¾ Panax notoginseng powder and ¼ black powder, and all Panax notoginseng powder.

[2] = tested on: Hep 3B/T2 cancer cells; experiment: SCID mice injected with Hep 3B/T2 cancer cells, fed fermented product for 35 days; type: in vivo; conditions: positive control group
Procedure: SCID mice with 18 to 22 g body weight were classified into 5 groups and 10 mice per group. […] The tumor size of the SCID mice was measured every 3 to 4 days, and the weight of the heart, liver, spleen, lung, and kidney of the SCID mice was measured when the experiment was finished.

| Compound | anti-oxidation capacity [1] | Heart weight [2] [mg] | Kidney weight [2] [mg] | Liver weight [2] [mg] | Lung weight [2] [mg] | Spleen weight [2] [mg] | Tumor weight [2] [mg] |
| --- | --- | --- | --- | --- | --- | --- | --- |
| vitamin E | 100 |  |  |  |  |  |  |
| O=c1[nH]cc(F)c(=O)[nH]1 [5-FU, fluorouracil] |  | 143.2 ± 14.6 | 328.2 ± 26.2 | 1171.3 ± 103.0 | 215.8 ± 23 | 118.7 ± 35.6 | 376.1 ± 232.9 |
